The source of these data is patent US5191079A, “Quinolinecarboxylic acid derivatives” (priority 1990, dated 1993).

The assay has as its system Staphylococcus aureus IID 803. In words: Effect on treatment of general infectious disease (systemic infection in mice), Experiment 4. The assay is classed as in vivo, Staphylococcus aureus; ddY male mice. On the procedure:
Staphylococcus aureus IID 803
The test microorganism was subjected to standing culture in Brain heart infusion broth (manufactured by DIFCO) at 37° C. for 16 to 18 hours. The culture was then diluted with PBS (Dulbecco's phosphate buffered saline) to adjust the concentration of bacteria to 3×10^7 CFU/ml. The mixture was mixed with an equivalent amount of 10% (w/v) Mucin (BACTO MUCIN BACTERIOLOGICAL, manufactured by Difco Co.) to prepare a bacterial suspension. The thus prepared bacterial suspension (0.5 ml each) was intraperitoneally inoculated to ddY male mice (5 weeks age, weighing 22-29 g, 10 mice in each group), to infect the animals, by which systemic infectious model was prepared. One hour after the infection, a suspension of the test compound in 1% (w/v) aqueous gum arabic was orally adiministered to mice.
The mice were daily observed for one week, and from the survival number of mice after one week, the 50% effective dose (ED50) was calculated by Weil method.

As a reminder, the ED50 is the dose at which the effect has come halfway, by size or by number of responders. For `COCC1CN(c2c(F)cc3c(=O)c(C(=O)O)c4scc5n4c3c2N(C)C5)CCO1` (centres unmarked) [Compound (E), 9,1-(Methylimino)methano-7-fluoro-8-(2-methoxymethylmorpholino)-5-oxo-5H-thiazolo[3,2-a]quinoline-4-carboxylic acid], under “Experiment 4, in words”, the “protective effects against infection” value is “excellent protective effects against infection”. Further, under “Staphylococcus aureus, IID803, 168 h, oral, 1 h after i.p. infection, mice, survival after one week, 3×10^7 CFU/ml, read-out: 50% effective dose (ED50)”, the ED50 worked out at 1.7 mg/kg.
